Reference: publication PMC8710297, “Identification of potent SENP1 inhibitors that inactivate SENP1/JAK2/STAT signaling pathway and overcome platinum drug resistance in ovarian cancer” (Clinical and Translational Medicine, 2021)

Target: T1, SENP1 (Homo sapiens, UniProt Q9P0U3)
T1 sequence (Q9P0U3 1-644): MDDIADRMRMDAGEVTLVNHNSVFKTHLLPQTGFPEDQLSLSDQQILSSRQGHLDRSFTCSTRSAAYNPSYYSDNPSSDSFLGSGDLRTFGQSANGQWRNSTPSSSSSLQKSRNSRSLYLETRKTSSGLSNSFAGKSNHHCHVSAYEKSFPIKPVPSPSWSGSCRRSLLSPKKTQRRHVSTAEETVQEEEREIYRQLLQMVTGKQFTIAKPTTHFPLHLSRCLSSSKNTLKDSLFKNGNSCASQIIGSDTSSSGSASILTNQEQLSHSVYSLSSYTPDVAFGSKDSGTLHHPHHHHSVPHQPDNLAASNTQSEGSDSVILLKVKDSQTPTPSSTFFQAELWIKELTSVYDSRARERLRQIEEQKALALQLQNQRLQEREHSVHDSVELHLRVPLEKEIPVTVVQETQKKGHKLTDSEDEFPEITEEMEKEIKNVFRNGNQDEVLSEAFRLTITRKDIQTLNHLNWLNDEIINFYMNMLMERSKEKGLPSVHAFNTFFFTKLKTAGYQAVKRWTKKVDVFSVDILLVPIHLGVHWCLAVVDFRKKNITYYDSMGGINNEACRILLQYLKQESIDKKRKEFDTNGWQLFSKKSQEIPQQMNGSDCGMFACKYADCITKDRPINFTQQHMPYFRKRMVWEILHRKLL
Experiment: In vitro (cell-free) thermal shift assay
Assay type: binding
Design: made in house
Settings: purified SENP1, 4 h, higher temperatures
Description: FIGURE 2 UA directly interacts with Sentrin‐specific protease 1 (SENP1). (A) Cellular thermal shift assay to examine the interaction of UA with SENP1. IGROV1 CR cells pretreated with MG132 (10 μM, 1 h) were incubated with DMSO or UA for 4 h before being shifted to indicated temperatures. SENP1 stability was analyzed by using Western blot against SENP1 antibody. Right panel, quantification of non‐denatured SENP1 fraction shown in the left panel. (B) Cell‐free thermal shift assay to examine interactions of UA with SENP1. Purified SENP1 proteins were incubated with DMSO or UA for 4 h before being shifted to the indicated temperatures. SENP1 stability was analyzed by using Western blot against SENP1 antibody. Right panel, quantification of non‐denatured SENP1 fraction shown in the left panel. (C) The predicted docking pose of UA (C: green; H: white; O: red) at the hydrophobic catalytic cleft of SENP1 (C: salmon; H: white; O: red; N: blue). Key amino acid residues were highlighted. […] Stability of SENP1(C603A) was analyzed by using Western blot against SENP1 antibody. […] Left; Ultra‐high performance liquid‐chromatography‐MS/MS analyses of associated UA in indicated samples, right; quantification of data shown in left (the binding affinity of UA with SENP1‐C603A was normalized as 1). […]
The qu anti ficatio n of immunohistochemical sta in ing wa s scored blindly at lea st by two independent obser vers. […]

thermal stabilization of recombinant SENP1 in vitro: stabilized
Structure (SMILES): C[C@H]1[C@H](C)CC[C@]2(C(=O)O)CC[C@]3(C)C(=CC[C@@H]4[C@@]5(C)CC[C@H](O)C(C)(C)[C@@H]5CC[C@]43C)[C@H]12 [UA, ursolic acid, reference compound]
